Results: ChEMBL document CHEMBL3994622, “Design and synthesis of new RAF kinase-inhibiting antiproliferative quinoline derivatives. Part 2: Diarylurea derivatives” (Eur J Med Chem, 2017)

Legend:
K562 = assay: Growth inhibition of human K562 cells assessed as cell growth at 0.005 uM incubated for 48 hrs by sulforhodamine B assay relative to control; format: functional; settings: K562, 48 h, read-out: Activity
HOP-62 = assay: Growth inhibition of human HOP62 cells assessed as cell growth at 0.005 uM incubated for 48 hrs by sulforhodamine B assay relative to control; format: functional; settings: HOP-62, 48 h, read-out: Activity
NCI-H226 = assay: Growth inhibition of human NCI-H226 cells assessed as cell growth at 0.005 uM incubated for 48 hrs by sulforhodamine B assay relative to control; format: functional; settings: NCI-H226, 48 h, read-out: Activity
HCC 2998 = assay: Growth inhibition of human HCC2998 cells assessed as cell growth at 0.005 uM incubated for 48 hrs by sulforhodamine B assay relative to control; format: functional; settings: HCC 2998, 48 h, read-out: Activity
SNB-19 = assay: Growth inhibition of human SNB19 cells assessed as cell growth at 0.005 uM incubated for 48 hrs by sulforhodamine B assay relative to control; format: functional; settings: SNB-19, 48 h, read-out: Activity
SK-MEL-2 = assay: Growth inhibition of human SK-MEL-2 cells assessed as cell growth at 0.005 uM incubated for 48 hrs by sulforhodamine B assay relative to control; format: functional; settings: SK-MEL-2, 48 h, read-out: Activity
UACC-62 = assay: Growth inhibition of human UACC62 cells assessed as cell growth at 0.005 uM incubated for 48 hrs by sulforhodamine B assay relative to control; format: functional; settings: UACC-62, 48 h, read-out: Activity
786-0 = assay: Growth inhibition of human 786-0 cells assessed as cell growth at 0.005 uM incubated for 48 hrs by sulforhodamine B assay relative to control; format: functional; settings: 786-0, 48 h, read-out: Activity
SN12C = assay: Growth inhibition of human SN12C cells assessed as cell growth at 0.005 uM incubated for 48 hrs by sulforhodamine B assay relative to control; format: functional; settings: read-out: Activity
NCI-H522 = assay: Growth inhibition of human NCI-H522 cells assessed as cell growth at 0.05 uM incubated for 48 hrs by sulforhodamine B assay relative to control; format: functional; settings: NCI-H522, 48 h, read-out: Activity
HCT-116 [1] = assay: Growth inhibition of human HCT116 cells assessed as cell growth at 0.05 uM incubated for 48 hrs by sulforhodamine B assay relative to control; format: functional; settings: HCT-116, 48 h, read-out: Activity
SF-539 = assay: Growth inhibition of human SF539 cells assessed as cell growth at 0.05 uM incubated for 48 hrs by sulforhodamine B assay relative to control; format: functional; settings: SF-539, 48 h, read-out: Activity
OVCAR-3 = assay: Growth inhibition of human OVCAR3 cells assessed as cell growth at 0.05 uM incubated for 48 hrs by sulforhodamine B assay relative to control; format: functional; settings: OVCAR-3, 48 h, read-out: Activity
OVCAR-4 = assay: Growth inhibition of human OVCAR4 cells assessed as cell growth at 0.05 uM incubated for 48 hrs by sulforhodamine B assay relative to control; format: functional; settings: OVCAR-4, 48 h, read-out: Activity
MDA-MB-231 = assay: Growth inhibition of human MDA-MB-231 cells assessed as cell growth at 0.05 uM incubated for 48 hrs by sulforhodamine B assay relative to control; format: functional; settings: MDA-MB-231, 48 h, read-out: Activity
SF-268 [2] = assay: Growth inhibition of human SF268 cells assessed as cell growth at 0.5 uM incubated for 48 hrs by sulforhodamine B assay relative to control; format: functional; settings: SF-268, 48 h, read-out: Activity
OVCAR-5 [3] = assay: Growth inhibition of human OVCAR5 cells assessed as cell growth at 0.5 uM incubated for 48 hrs by sulforhodamine B assay relative to control; format: functional; settings: OVCAR-5, 48 h, read-out: Activity
A498 = assay: Growth inhibition of human A498 cells assessed as cell growth at 0.5 uM incubated for 48 hrs by sulforhodamine B assay relative to control; format: functional; settings: A498, 48 h, read-out: Activity
TK-10 = assay: Growth inhibition of human TK10 cells assessed as cell growth at 0.5 uM incubated for 48 hrs by sulforhodamine B assay relative to control; format: functional; settings: TK-10, 48 h, read-out: Activity
HCT-116 [4] = assay: Growth inhibition of human HCT116 cells assessed as cell growth at 5 uM incubated for 48 hrs by sulforhodamine B assay relative to control; format: functional; settings: HCT-116, 48 h, read-out: Activity
KM12 = assay: Growth inhibition of human KM12 cells assessed as cell growth at 5 uM incubated for 48 hrs by sulforhodamine B assay relative to control; format: functional; settings: KM12, 48 h, read-out: Activity
LOX IMVI = assay: Growth inhibition of human LOXIMVI cells assessed as cell growth at 5 uM incubated for 48 hrs by sulforhodamine B assay relative to control; format: functional; settings: read-out: Activity
Malme-3M = assay: Growth inhibition of human MALME-3M cells assessed as cell growth at 5 uM incubated for 48 hrs by sulforhodamine B assay relative to control; format: functional; settings: read-out: Activity
OVCAR-8 = assay: Growth inhibition of human OVCAR8 cells assessed as cell growth at 5 uM incubated for 48 hrs by sulforhodamine B assay relative to control; format: functional; settings: OVCAR-8, 48 h, read-out: Activity
NCI/ADR-RES = assay: Growth inhibition of human NCI/ADR-RES cells assessed as cell growth at 5 uM incubated for 48 hrs by sulforhodamine B assay relative to control; format: functional; settings: read-out: Activity
DU-145 = assay: Growth inhibition of human DU145 cells assessed as cell growth at 5 uM incubated for 48 hrs by sulforhodamine B assay relative to control; format: functional; settings: DU-145, 48 h, read-out: Activity
SK-MEL-5 = assay: Growth inhibition of human SK-MEL-5 cells assessed as cell growth at 50 uM incubated for 48 hrs by sulforhodamine B assay relative to control; format: functional; settings: SK-MEL-5, 48 h, read-out: Activity
OVCAR-5 [5] = assay: Growth inhibition of human OVCAR5 cells assessed as cell growth at 50 uM incubated for 48 hrs by sulforhodamine B assay relative to control; format: functional; settings: OVCAR-5, 48 h, read-out: Activity
[6] = molecular target: Vascular endothelial growth factor receptor 2 (Homo sapiens) (UniProt P35968); assay: Inhibition of human KDR at 10 uM using poly[Glu:Tyr] (4:1) as substrate in presence of [33P]ATP by Hotspot assay relative to control
[7] = molecular target: Mitogen-activated protein kinase 14 (Homo sapiens) (UniProt Q16539); assay: Inhibition of human MAPK p38allpha at 10 uM using myelin basic protein as substrate in presence of [33P]ATP by Hotspot assay relative to control
EKVX = assay: Growth inhibition of human EKVX cells assessed as cell growth at 0.3 uM incubated for 48 hrs by sulforhodamine B assay relative to control; format: functional; settings: read-out: Activity
HCT-15 = assay: Growth inhibition of human HCT15 cells assessed as cell growth at 100 uM incubated for 48 hrs by sulforhodamine B assay relative to control; format: functional; settings: HCT-15, 48 h, read-out: Activity
SF-268 [8] = assay: Growth inhibition of human SF268 cells assessed as cell growth at 100 uM incubated for 48 hrs by sulforhodamine B assay relative to control; format: functional; settings: SF-268, 48 h, read-out: Activity

Chain of Vascular endothelial growth factor receptor 2 (Homo sapiens) (P35968 whole entry): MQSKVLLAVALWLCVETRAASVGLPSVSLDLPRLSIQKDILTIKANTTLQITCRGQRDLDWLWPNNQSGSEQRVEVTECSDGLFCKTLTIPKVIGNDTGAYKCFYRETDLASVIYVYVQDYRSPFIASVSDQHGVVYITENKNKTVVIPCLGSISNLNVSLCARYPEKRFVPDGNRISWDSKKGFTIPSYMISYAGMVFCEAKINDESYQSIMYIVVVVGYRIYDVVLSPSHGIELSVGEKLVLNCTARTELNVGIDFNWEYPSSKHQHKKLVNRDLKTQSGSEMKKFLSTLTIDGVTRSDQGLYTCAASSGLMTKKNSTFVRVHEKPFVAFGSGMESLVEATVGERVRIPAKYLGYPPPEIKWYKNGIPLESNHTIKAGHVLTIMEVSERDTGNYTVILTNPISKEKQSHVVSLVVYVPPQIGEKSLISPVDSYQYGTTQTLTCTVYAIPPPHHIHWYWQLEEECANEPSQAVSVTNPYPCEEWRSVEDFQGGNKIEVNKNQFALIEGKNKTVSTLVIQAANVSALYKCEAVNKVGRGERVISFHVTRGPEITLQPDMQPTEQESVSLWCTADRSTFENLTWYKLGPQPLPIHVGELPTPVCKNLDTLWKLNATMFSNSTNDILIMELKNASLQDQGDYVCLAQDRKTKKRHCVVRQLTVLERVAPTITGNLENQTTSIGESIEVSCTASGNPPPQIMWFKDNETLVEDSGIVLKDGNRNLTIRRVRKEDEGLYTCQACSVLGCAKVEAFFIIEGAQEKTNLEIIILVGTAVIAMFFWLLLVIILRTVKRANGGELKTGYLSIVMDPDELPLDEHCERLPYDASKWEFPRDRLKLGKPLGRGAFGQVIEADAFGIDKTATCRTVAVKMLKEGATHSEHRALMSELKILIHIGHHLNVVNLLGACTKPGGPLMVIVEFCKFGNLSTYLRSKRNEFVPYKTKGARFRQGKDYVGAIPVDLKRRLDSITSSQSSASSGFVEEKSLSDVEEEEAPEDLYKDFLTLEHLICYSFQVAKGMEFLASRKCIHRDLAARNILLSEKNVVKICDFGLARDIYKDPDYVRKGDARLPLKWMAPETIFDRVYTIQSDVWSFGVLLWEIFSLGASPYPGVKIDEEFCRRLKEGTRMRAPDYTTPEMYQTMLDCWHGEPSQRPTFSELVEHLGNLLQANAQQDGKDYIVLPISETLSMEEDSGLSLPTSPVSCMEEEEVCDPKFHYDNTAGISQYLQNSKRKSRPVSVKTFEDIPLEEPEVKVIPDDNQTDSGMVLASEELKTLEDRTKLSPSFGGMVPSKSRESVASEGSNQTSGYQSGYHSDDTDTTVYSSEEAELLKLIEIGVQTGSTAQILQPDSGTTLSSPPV
Chain of Mitogen-activated protein kinase 14 (Homo sapiens) (Q16539 whole entry): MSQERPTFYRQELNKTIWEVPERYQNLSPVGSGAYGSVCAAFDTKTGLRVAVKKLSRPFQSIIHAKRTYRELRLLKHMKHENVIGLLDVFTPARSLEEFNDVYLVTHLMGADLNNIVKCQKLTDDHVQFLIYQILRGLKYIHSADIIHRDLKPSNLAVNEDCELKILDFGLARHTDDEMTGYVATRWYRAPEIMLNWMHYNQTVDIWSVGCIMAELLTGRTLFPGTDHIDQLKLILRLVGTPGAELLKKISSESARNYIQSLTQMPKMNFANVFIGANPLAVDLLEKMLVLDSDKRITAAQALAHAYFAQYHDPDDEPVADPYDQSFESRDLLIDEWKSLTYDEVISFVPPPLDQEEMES

COc1cc2cc(Oc3ccc(NC(=O)Nc4cccc(C(F)(F)F)c4)cc3)c(C)nc2cc1OC
growth at 0.005 µM (K562): 102% | growth at 0.005 µM (HOP-62): 95% | growth at 0.005 µM (NCI-H226): 96% | growth at 0.005 µM (HCC 2998): 99% | growth at 0.005 µM (SNB-19): 92% | growth at 0.005 µM (SK-MEL-2): 102% | growth at 0.005 µM (UACC-62): 93% | growth at 0.005 µM (786-0): 98% | growth at 0.005 µM (SN12C): 95% | growth at 0.05 µM (NCI-H522): 92% | growth at 0.05 µM (HCT-116 [1]): 93% | growth at 0.05 µM (SF-539): 96% | growth at 0.05 µM (OVCAR-3): 101% | growth at 0.05 µM (OVCAR-4): 95% | growth at 0.05 µM (MDA-MB-231): 95% | growth at 0.5 µM (SF-268 [2]): 96% | growth at 0.5 µM (OVCAR-5 [3]): 119% | growth at 0.5 µM (A498): 85% | growth at 0.5 µM (TK-10): 108% | growth at 5 µM (HCT-116 [4]): 6% | growth at 5 µM (KM12): 5% | growth at 5 µM (LOX IMVI): 14% | growth at 5 µM (Malme-3M): -1% | growth at 5 µM (OVCAR-8): 10% | growth at 5 µM (NCI/ADR-RES): 11% | growth at 5 µM (DU-145): 32% | growth at 50 µM (SK-MEL-5): -100% | growth at 50 µM (OVCAR-5 [5]): -44%

COc1cc2cc(Oc3ccc(NC(=O)Nc4ccc(Cl)c(C(F)(F)F)c4)cc3)c(C)nc2cc1OC
inhibition [6]: 0.83% | inhibition [7]: 56.4% | growth at 0.3 µM (EKVX): 94%

COc1cc2cc(Oc3ccc(NC(=O)Nc4cc(C(F)(F)F)cc(C(F)(F)F)c4)cc3)c(C)nc2cc1OC
growth at 100 µM (HCT-15): -88% | growth at 100 µM (SF-268 [8]): -71%
